# Results: a melting point compilation (Tetko et al.; mined from patent text by program, amines drawn as free bases though some values may be those of a salt)
row,SMILES,melting point [°C]
1,Oc1cc2c(cc1C=CCc1ccccc1)OCO2,83
2,CCOc1ccc([N+](=O)[O-])nc1C,82 to 84
3,COc1ccc2cc([C@H](C)C(=O)NOCC(=O)O)ccc2c1,152 to 153
4,CCc1nc2c(C)cc(C)nc2n1-c1ccc(CC(C)OC(=O)NS(=O)(=O)c2ccc(C)cc2)cc1 (stereo unspecified),108
5,COc1cc2c(cc1OC)C(=O)C(=O)N(CCCN(C)CCCSc1ccccc1)CC2,77 to 79
6,Cc1cc(C2OCCO2)ncc1[N+](=O)[O-],77 to 79
7,CCn1cc(C(=O)O)c(=O)c2cc(F)c(N3CCN(S(=O)(=O)c4ccc(OC)cc4)CC3)c(F)c21,252 to 253
8,COC(=O)Nc1ccccc1,45 to 46
9,Nc1nc2ccccc2c2c1nc(O)n2CC1CCOCC1,> 250
10,O=c1nc(-c2ccccc2O)oc2ccccc12,206 to 208
11,CC(=O)N1C(=O)Cc2cc(F)c(N3C(=O)C4=C(CCCC4)C3=O)cc21,191 to 194
12,O=C1O[C@@H](CN2CCC(Cc3ccc(F)cc3)CC2)CN1c1ccc(O)cc1,164 to 165
13,CCN(CC)C(=O)NC1CC2c3cccc4[nH]c(C#Cc5ccc(C#N)cc5)c(c34)CC2N(C)C1 (stereo unspecified),150 to 151
14,CS(=O)(=O)c1ccc(-n2nc(C(F)(F)F)cc2-c2nc3cc(F)ccc3[nH]2)cc1,278 to 280
15,O=C1Nc2cc([N+](=O)[O-])ccc2OC1CCO (stereo unspecified),174 to 175
16,COC(=O)Cc1ccc(OCc2ccc(-c3ccccc3)cc2)cc1,115 to 116
17,COC1(C=CCOc2ccc3c(-c4ccc(F)cc4)c4c(cc3c2)C(=O)OC4)CCOCC1,144 to 148
18,CN(CC(=O)O)C(=O)CN1CCCC1=O,178
19,CS(=O)(=O)n1cc(F)c(=O)[nH]c1=O,223 to 224
20,COC(=O)C1C(C)=NC(N2CCCCC2)=C(C(=O)OC(C)C)C1c1cccc([N+](=O)[O-])c1 (stereo unspecified),112
21,O=C(Nc1ccc(-n2nc(C(F)(F)F)cc2C2CC2)nc1)c1c(Cl)cncc1Cl,223 to 225

row,SMILES,melting point [°C]
1,CN1CCC(CO)(OCc2ccccc2F)CC1,104 to 108
2,CC#CCN(c1nc(-c2ccc(OC)cc2Cl)c(C)s1)C(COC)c1ccccc1 (stereo unspecified),70
3,COC(=O)C=Cc1cccc2cc[nH]c12,85 to 86
4,CC1Cc2cc(O)ccc2C2C(F)CC3(C)C(=O)CCC3C12 (stereo unspecified),185 to 186
5,CCN(CC)c1nc(-c2ccncc2)nc2sc(C#N)c(C)c12,169 to 171
6,OCC(O)COC(c1ccccc1)(c1ccccc1)c1ccccc1 (stereo unspecified),108 to 110
7,Cc1cc(NS(=O)(=O)c2ccccc2)no1,107 to 108
8,CC(=O)Nc1ccc(N2CCN(c3ccncc3)CC2)cc1,244 to 247
9,COc1cc(/C=C(\C(=O)NCCCCCC(=O)NO)c2ccc(F)cc2)cc(OC)c1,104 to 105
10,CCCOc1ccc(F)cc1-c1ccc(C#N)c(=O)[nH]1,242 to 243
11,CC(C)=CCCC(C)=CCCC(C)=CC=CC(C)=CC(=O)N(C)C,39 to 39.5
12,CN1CCN(c2ncnc3oc(-c4ccccc4)c(-c4ccc(F)cc4)c23)CC1,143 to 144
13,NC(=O)c1sc2nccc(N3CCCN(c4ccc(C(F)(F)F)cc4)CC3)c2c1N,204 to 208
14,O=C(Nc1c[nH]nc1C(=O)Nc1cccc(C(F)(F)F)c1)c1ccccn1,236 to 237
15,Cc1ccc(-c2cc(C(=O)O)nn2Cc2ccc(Cl)c(Cl)c2)cc1,172
16,COc1cc(COc2ncccc2CO)ccc1OCc1nc(-c2ccccc2)oc1C,143 to 144
17,O=C(O)C(Sc1nc2c(s1)CCCC2)c1ccccc1 (stereo unspecified),118 to 120
18,CCOc1ccc2[nH]c(=O)n(N3CCOCC3)c2c1,155
19,COc1ccc(NS(=O)(=O)c2ccc(N3CCNC3=O)cc2)cc1,210 to 211
20,CN(C)c1ccc(C2(c3ccc(N(C)C)cc3N(C)C)OC(=O)c3ccc(N(C)C)cc32)cc1 (stereo unspecified),222 to 225
